From patent publication US8541418B2, “Inhibitors of polo-like kinase” (Elan Pharmaceutical, Inc., priority 2009, dated 2013)
pIC50: −log10 of the molar value.

Columns and labels:
Format in all cases: biochemical
PLK1 = PLK1 (Homo sapiens, UniProt P53350); test: PLK TR-FRET peptide assay, PLK1; settings: GST-PLK1, 60 min reaction
PLK2 = PLK2 (Homo sapiens, UniProt Q9NYY3); test: PLK TR-FRET peptide assay, PLK2; settings: PLK TR-FRET peptide assay, GST-PLK2, 60 min reaction; read-out: Plk2 IC50
PLK3 = PLK3 (Homo sapiens, UniProt Q9H4B4); test: PLK TR-FRET peptide assay, PLK3; settings: GST-PLK3, 15 min reaction, read-out: Plk3 IC50
PLK3, sequence (Q9H4B4 whole entry): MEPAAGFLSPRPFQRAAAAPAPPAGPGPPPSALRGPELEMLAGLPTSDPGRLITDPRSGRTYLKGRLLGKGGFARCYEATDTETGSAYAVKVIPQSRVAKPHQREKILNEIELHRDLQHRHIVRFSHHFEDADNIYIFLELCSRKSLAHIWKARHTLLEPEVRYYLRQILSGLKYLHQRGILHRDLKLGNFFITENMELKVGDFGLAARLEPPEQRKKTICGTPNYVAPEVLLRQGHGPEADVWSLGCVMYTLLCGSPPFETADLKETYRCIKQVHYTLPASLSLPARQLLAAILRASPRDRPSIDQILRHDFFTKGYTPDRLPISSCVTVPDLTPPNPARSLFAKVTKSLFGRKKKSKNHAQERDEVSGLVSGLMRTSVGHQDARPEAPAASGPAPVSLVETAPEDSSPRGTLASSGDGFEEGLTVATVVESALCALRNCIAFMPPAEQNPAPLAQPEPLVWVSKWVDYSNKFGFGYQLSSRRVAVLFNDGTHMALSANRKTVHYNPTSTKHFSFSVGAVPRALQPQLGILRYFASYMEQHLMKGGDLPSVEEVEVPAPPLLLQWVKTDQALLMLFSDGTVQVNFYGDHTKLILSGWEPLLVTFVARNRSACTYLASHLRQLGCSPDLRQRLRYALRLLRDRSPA

PLK2, sequence (Q9NYY3 whole entry): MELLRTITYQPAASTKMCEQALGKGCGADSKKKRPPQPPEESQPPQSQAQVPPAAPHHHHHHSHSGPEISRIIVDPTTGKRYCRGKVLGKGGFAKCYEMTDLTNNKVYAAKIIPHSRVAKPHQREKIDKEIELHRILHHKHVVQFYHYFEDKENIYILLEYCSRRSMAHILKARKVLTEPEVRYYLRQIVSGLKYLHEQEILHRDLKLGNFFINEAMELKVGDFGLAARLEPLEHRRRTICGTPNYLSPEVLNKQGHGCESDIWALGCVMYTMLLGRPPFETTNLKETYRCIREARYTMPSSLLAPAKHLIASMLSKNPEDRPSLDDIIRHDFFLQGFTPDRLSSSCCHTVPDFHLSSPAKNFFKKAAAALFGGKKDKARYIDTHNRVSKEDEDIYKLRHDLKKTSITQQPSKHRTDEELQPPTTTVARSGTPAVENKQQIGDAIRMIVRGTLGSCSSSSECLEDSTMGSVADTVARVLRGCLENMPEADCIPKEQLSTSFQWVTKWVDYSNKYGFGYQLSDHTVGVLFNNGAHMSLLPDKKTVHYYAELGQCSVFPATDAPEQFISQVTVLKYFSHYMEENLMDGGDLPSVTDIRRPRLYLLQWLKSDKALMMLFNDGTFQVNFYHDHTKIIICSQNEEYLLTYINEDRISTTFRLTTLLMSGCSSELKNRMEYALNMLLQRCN
PLK1, sequence (P53350 whole entry): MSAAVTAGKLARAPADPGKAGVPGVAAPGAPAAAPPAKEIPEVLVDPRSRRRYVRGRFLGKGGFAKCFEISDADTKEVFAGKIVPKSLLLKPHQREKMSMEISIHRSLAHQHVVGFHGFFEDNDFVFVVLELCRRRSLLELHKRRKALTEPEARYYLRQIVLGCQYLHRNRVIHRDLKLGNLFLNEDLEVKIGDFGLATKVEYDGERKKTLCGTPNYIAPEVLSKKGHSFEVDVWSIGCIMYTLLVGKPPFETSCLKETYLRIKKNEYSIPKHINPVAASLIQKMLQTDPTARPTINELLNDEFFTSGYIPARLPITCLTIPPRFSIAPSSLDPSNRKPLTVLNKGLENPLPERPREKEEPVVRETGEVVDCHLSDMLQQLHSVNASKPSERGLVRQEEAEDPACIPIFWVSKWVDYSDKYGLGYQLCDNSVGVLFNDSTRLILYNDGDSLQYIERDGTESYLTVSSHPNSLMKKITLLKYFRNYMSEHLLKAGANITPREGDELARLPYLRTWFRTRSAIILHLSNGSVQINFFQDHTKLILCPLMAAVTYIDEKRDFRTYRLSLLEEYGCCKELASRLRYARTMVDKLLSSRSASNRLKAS

Q: `CC[C@@H]1C(=O)N(C)c2cnc(-n3ccnc3-c3ccccc3)nc2N1C1CCC1` [Example 47, (R)-8-cyclobutyl-7-ethyl-5-methyl-2-(2-phenyl-1H-imidazol-1-yl)-7,8-dihydropteridin-6(5H)-one] was tested. Which pIC50 (PLK1) did it give?
A: > 6.00

Q: And the pIC50 (PLK2)?
A: > 6.00

Q: And the pIC50 (PLK3)?
A: 5.00 to 6.00

Q: With `CC[C@@H]1C(=O)N(C)c2cnc(-n3ccnc3-c3ccc(F)c(F)c3)nc2N1C1CCC1` [Example 48, (R)-8-cyclobutyl-2-(2-(3,4-difluorophenyl)-1H-imidazol-1-yl)-7-ethyl-5-methyl-7,8-dihydropteridin-6(5H)-one] as the compound, how does the pIC50 (PLK1) read?
A: 5.00 to 6.00

Q: And the pIC50 (PLK2)?
A: > 6.00

Q: What about the pIC50 (PLK3) of the same compound?
A: 4.30 to 5.00

Q: What does the source list for `CC[C@@H]1C(=O)N(C)c2cnc(-n3ccnc3-c3ccccc3F)nc2N1C1CCC1` [Example 49, (R)-8-cyclobutyl-7-ethyl-2-(2-(2-fluorophenyl)-1H-imidazol-1-yl)-5-methyl-7,8-dihydropteridin-6(5H)-one]?
A: pIC50 (PLK1): > 6.00; pIC50 (PLK2): > 6.00; pIC50 (PLK3): 5.00 to 6.00

Q: What does the source list for `CC[C@@H]1C(=O)N(C)c2cnc(-n3ccnc3-c3ccc(F)cc3)nc2N1C1CCC1` [Example 50, (R)-8-cyclobutyl-7-ethyl-2-(2-(4-fluorophenyl)-1H-imidazol-1-yl)-5-methyl-7,8-dihydropteridin-6(5H)-one]?
A: pIC50 (PLK1): 5.00 to 6.00; pIC50 (PLK2): > 6.00; pIC50 (PLK3): 5.00 to 6.00

Q: With `CC[C@@H]1C(=O)N(C)c2cnc(-c3cccc(NS(C)(=O)=O)c3)nc2N1C1CCCC1` [Example 53, (R)—N-(3-(8-cyclopentyl-7-ethyl-5-methyl-6-oxo-5,6,7,8-tetrahydropteridin-2-yl)phenyl)methanesulfonamide] as the compound, how does the pIC50 (PLK1) read?
A: 5.00 to 6.00

Q: What about the pIC50 (PLK2) of the same compound?
A: > 6.00

Q: And the pIC50 (PLK3)?
A: 5.00 to 6.00

Q: How did the pIC50 (PLK1) turn out when `CC[C@@H]1C(=O)N(C)c2cnc(-c3cccc(C(=O)N(C)C)c3)nc2N1C1CCCC1` [Example 57, (R)-3-(8-cyclopentyl-7-ethyl-5-methyl-6-oxo-5,6,7,8-tetrahydropteridin-2-yl)-N,N-dimethylbenzamide] was run?
A: 5.00 to 6.00

Q: What about the pIC50 (PLK2) of the same compound?
A: 5.00 to 6.00

Q: And the pIC50 (PLK3)?
A: < 4.30

Q: With `CC[C@@H]1C(=O)N(C)c2cnc(-n3cnc(-c4nccs4)c3)nc2N1C1CCCC1` [Example 60, (R)-8-cyclopentyl-7-ethyl-5-methyl-2-(4-(thiazol-2-yl)-1H-imidazol-1-yl)-7,8-dihydropteridin-6(5H)-one] as the compound, how does the pIC50 (PLK1) read?
A: > 6.00

Q: And the pIC50 (PLK2)?
A: > 6.00

Q: And the pIC50 (PLK3)?
A: 5.00 to 6.00

Q: Which results are given for `CC[C@@H]1C(=O)N(C)c2cnc(-c3ccc(S(C)(=O)=O)cc3)nc2N1C1CCCC1` [Example 64, (R)-8-cyclopentyl-7-ethyl-5-methyl-2-(4-(methylsulfonyl)phenyl)-7,8-dihydropteridin-6(5H)-one]?
A: pIC50 (PLK1): > 6.00; pIC50 (PLK2): > 6.00; pIC50 (PLK3): 5.00 to 6.00

Q: Which results are given for `CC[C@@H]1C(=O)N(C)c2cnc(-c3cccc(C(N)=O)c3)nc2N1C1CCCC1` [Example 66, (R)-3-(8-cyclopentyl-7-ethyl-5-methyl-6-oxo-5,6,7,8-tetrahydropteridin-2-yl)benzamide]?
A: pIC50 (PLK1): > 6.00; pIC50 (PLK2): > 6.00; pIC50 (PLK3): 5.00 to 6.00

Q: How did the pIC50 (PLK1) turn out when `CC[C@@H]1C(=O)N(C)c2cnc(-n3ccnc3-c3cccnc3)nc2N1C1CCCC1` [Example 67, (R)-8-cyclopentyl-7-ethyl-5-methyl-2-(2-(pyridin-3-yl)-1H-imidazol-1-yl)-7,8-dihydropteridin-6(5H)-one] was run?
A: > 6.00

Q: And the pIC50 (PLK2)?
A: > 6.00

Q: What about the pIC50 (PLK3) of the same compound?
A: > 6.00

Q: What does the source list for `CC[C@@H]1C(=O)N(C)c2cnc(-c3cccc(S(C)(=O)=O)c3)nc2N1C1CCCC1` [Example 71, (R)-8-cyclopentyl-7-ethyl-5-methyl-2-(3-(methylsulfonyl)phenyl)-7,8-dihydropteridin-6(5H)-one]?
A: pIC50 (PLK1): 5.00 to 6.00; pIC50 (PLK2): 5.00 to 6.00; pIC50 (PLK3): 4.30 to 5.00

Q: `CC[C@@H]1C(=O)N(C)c2cnc(-c3cccc(OCc4ccccc4)c3)nc2N1C1CCCC1` [Example 72, (R)-2-(3-(benzyloxy)phenyl)-8-cyclopentyl-7-ethyl-5-methyl-7,8-dihydropteridin-6(5H)-one] was tested. Which pIC50 (PLK1) did it give?
A: < 4.30

Q: What about the pIC50 (PLK2) of the same compound?
A: 4.30 to 5.00

Q: And the pIC50 (PLK3)?
A: < 4.30
